# In the supplement of paper PMC10307832:
# Compound: Cc1ccc(Nc2nccc(N(C)c3ccc4c(C)n(C)nc4c3)n2)cc1S(N)(=O)=O [Pazopanib] + COc1cccc2cc(-c3nc([C@H]4CC[C@H](C(=O)O)CC4)n4ncnc(N)c34)[nH]c12 [OSI-027] (partner 0.5 µM)
# Assay: relative viability (nuclei count vs DMSO), 5 days (fraction); higher = more cells survive
# Details: first compound 1 µM
# In short: (§1)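 Lung cancer cell lines in 1536-well plates were dosed by pin tool the day after seeding, either with one drug alone or with a fixed anchor-drug dose plus five library-drug doses (not always all listed) in √10 steps. After 5 days, cells were fixed and their nuclei stained in one step (final 0.05% Triton X-100, 1% formaldehyde, 1 ug/ml Hoechst), then counted on 4× images. Relative viability is the nuclei count in treated wells divided by that in vehicle wells. Values are medians of duplicate plates.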
row,Cell Line,relative viability
1,LC-2-ad,0.99
2,NCI-H1563,0.734
3,NCI-H1975,0.734
4,SK-LU-1,0.352
5,ABC-1,0.579
6,SK-MES-1,0.578
7,NCI-H661,0.735
8,RERF-LC-KJ,0.617

# Compound: Cc1ccc(C(=O)Nc2ccc(CN3CCN(C)CC3)c(C(F)(F)F)c2)cc1C#Cc1cnc2cccnn12 [Ponatinib] + C[C@@H](Oc1cc(-c2cnn(C3CCNCC3)c2)cnc1N)c1c(Cl)ccc(F)c1Cl [Crizotinib] (partner 1 µM)
# Assay: as above
# Details: first compound 0.002 µM
# In short: as §1
row,Cell Line,relative viability
1,A-427,0.875
2,NCI-H460,0.764
3,NCI-H727,0.853
4,NCI-H1734,0.638
5,NCI-H520,0.682
6,NCI-H2405,0.75
7,SW 1573,0.707
8,201T,1.03
9,NCI-H1915,0.801
10,HCC-827,0.819
11,LXF-289,0.769
12,NCI-H23,0.471
13,NCI-H650,0.598
14,CAL-12T,0.774
15,NCI-H1651,0.835
16,EPLC-272H,0.787
17,NCI-H2228,0.434
18,NCI-H1792,0.956

row,Cell Line,relative viability
1,NCI-H1355,0.989
2,NCI-H322M,0.913
3,NCI-H1437,0.899
4,NCI-H1755,0.858
5,NCI-H2023,0.711
6,HCC-15,0.828
7,NCI-H1944,1.07
8,PC-3 [JPC-3],0.925
9,EKVX,0.789
10,LC-2-ad,0.482
11,NCI-H1563,0.843
12,NCI-H1975,0.929
13,SK-LU-1,0.804
14,ABC-1,1.24
15,SK-MES-1,0.978
16,NCI-H661,1.02
17,RERF-LC-KJ,0.816

# Same assay, conditions: first compound 0.006325 µM
row,Cell Line,relative viability
1,A-427,1.02
2,NCI-H460,0.863
3,NCI-H727,0.686
4,NCI-H1734,0.657
5,NCI-H520,0.843
6,NCI-H2405,0.917
7,SW 1573,0.876
8,201T,1.07
9,NCI-H1915,0.844
10,HCC-827,0.964
11,LXF-289,0.825
12,NCI-H23,0.488
13,NCI-H650,0.663
14,CAL-12T,0.653
15,NCI-H1651,0.852
16,EPLC-272H,0.753
17,NCI-H2228,0.41
18,NCI-H1792,0.988

row,Cell Line,relative viability
1,NCI-H1355,1.06
2,NCI-H322M,0.961
3,NCI-H1437,0.957
4,NCI-H1755,0.869
5,NCI-H2023,0.769
6,HCC-15,0.843
7,NCI-H1944,1.24
8,PC-3 [JPC-3],1.04
9,EKVX,0.995
10,LC-2-ad,0.417
11,NCI-H1563,0.792
12,NCI-H1975,1.02
13,SK-LU-1,0.948
14,ABC-1,1.23
15,SK-MES-1,1
16,NCI-H661,1.04
17,RERF-LC-KJ,0.766

# Same assay, conditions: first compound 0.06325 µM
row,Cell Line,relative viability
1,A-427,0.838
2,NCI-H460,1.02
3,NCI-H727,0.893
4,NCI-H1734,0.647
5,NCI-H520,0.841
6,NCI-H2405,0.821
7,SW 1573,0.887
8,201T,1.06
9,NCI-H1915,0.839
10,HCC-827,0.924
11,LXF-289,0.821
12,NCI-H23,0.504
13,NCI-H650,0.695
14,CAL-12T,0.756
15,NCI-H1651,0.897
16,EPLC-272H,0.886
17,NCI-H2228,0.385
18,NCI-H1792,1.1

row,Cell Line,relative viability
1,NCI-H1355,1.16
2,NCI-H322M,0.816
3,NCI-H1437,0.967
4,NCI-H1755,0.896
5,NCI-H2023,0.788
6,HCC-15,0.858
7,NCI-H1944,1.23
8,PC-3 [JPC-3],1.11
9,EKVX,1.09
10,LC-2-ad,0.418
11,NCI-H1563,0.921
12,NCI-H1975,1.01
13,SK-LU-1,0.963
14,ABC-1,1.08
15,SK-MES-1,1.04
16,NCI-H661,0.99
17,RERF-LC-KJ,0.928

# Same assay, conditions: first compound 0.2 µM
row,Cell Line,relative viability
1,A-427,0.743
2,NCI-H460,0.908
3,NCI-H727,0.765
4,NCI-H1734,0.577
5,NCI-H520,0.581
6,NCI-H2405,0.732
7,SW 1573,0.608
8,201T,1.02
9,NCI-H1915,0.794
10,HCC-827,0.928
11,LXF-289,0.792
12,NCI-H23,0.558
13,NCI-H650,0.605
14,CAL-12T,0.614
15,NCI-H1651,0.876
16,EPLC-272H,0.811
17,NCI-H2228,0.234
18,NCI-H1792,0.976

row,Cell Line,relative viability
1,NCI-H1355,1.15
2,NCI-H322M,0.66
3,NCI-H1437,0.763
4,NCI-H1755,0.822
5,NCI-H2023,0.664
6,HCC-15,0.802
7,NCI-H1944,1.01
8,PC-3 [JPC-3],0.989
9,EKVX,1.02
10,LC-2-ad,0.421
11,NCI-H1563,0.843
12,NCI-H1975,0.943
13,SK-LU-1,0.777
14,ABC-1,0.852
15,SK-MES-1,0.92
16,NCI-H661,1.13
17,RERF-LC-KJ,0.834
